Reference: patent publication US20220324911A1, “THERAPEUTIC PEPTIDES” (COHBAR, INC., priority 2019, published 2022)
Non-standard residues stand in square brackets, D forms with d. No end group written: not given here.

Assays:
3T3-L1 adipocytes = assay: Free Fatty Acid Levels in 3T3-L1 Adipocytes; format: cell-based, mouse; settings: for Free Fatty Acid Levels Expressed as a Percent Isoproterenol Control, Percent of Control Value: peptides at 25 μM, 20-22 hours then isoproterenol (1 nM) 3 hours
Protocol: Following 12-15 days' differentiation, test peptides were added to a final concentration of 25 μM and incubated for 20-22 hours in Adipocyte Maintenance Medium. After 20-22 hours, isoproterenol (1 nM) was added to all wells except untreated controls and test peptides were replenished. Cells were incubated for a further 3 hours in Assay Buffer (Zen-Bio). Free fatty acid concentrations in the media were determined using a Free Fatty Acid Assay Kit (Zen-Bio) according to the manufacturer's instructions using a plate reader (540 nm). Absorbance values were corrected for untreated background and expressed relative to isoproterenol treated cells. Treatment with isoproterenol (1 nM) alone was used as the free fatty acid level stimulatory control. The relative standard deviation of the isoproterenol control was <10%. […] Free fatty acid levels for insulin (100 nM) treatment were <5% of the isoproterenol control value.

MDA-MB-231 cells [1] = assay: Caspase 3/7 Activity in MDA-MB-231 Cells (Caspase-Glo 3/7); format: cell-based, human; settings: peptides at 10 μM, 18 hours, relative to DMSO control
Protocol: The effect of the peptides on cell death/survival can be assessed using a caspase-3 assay. Peptides were dissolved with DMSO at 10 mM stock. […] Staurosporine (Selleckchem) was dissolved with DMSO at 1 mM stock. Caspase-Glo 3/7 Assay Reagent was purchased from Promega (Madison, Wis.). MDA-MB-231 human breast cancer cell line was purchased from American Type Culture Collection (Manassas, Va.). MDA-MB-231 cells were grown in DMEM Medium supplemented with 10% FBS. 100 μg/ml penicillin and 100 μg/ml streptomycin were added to the culture medium. Cultures were maintained at 37° C. in a humidified atmosphere of 5% C02 and 95% air. MDA-MB-231 cells were incubated with test peptides in duplicate at 10 μM at 37° C. in a humidified atmosphere of 5% C02 and 95% air for 18 hours. 25 μl of Caspase-Glo 3/7 Assay Reagent was added to each well and incubated at 37° C., 5% C02 for 1 hour. Luminescence for each sample well on the plate was measured by Envision 2104 Multilabel Reader (PerkinElmer, Santa Clara, Calif.). Activity was calculated relative to DMSO control.

MCF-7 cells = settings: human, 72 h, 10 µM
Protocol: Peptides and reference compound staurosporine (Selleckchem) were dissolved with DMSO at 10 mM stock. CellTiter 96® AQueous One Solution Reagent (MTS assay reagent) was purchased from Promega (Madison, Wis.). MCF-7 human breast cancer cell line was purchased from American Type Culture Collection (Manassas, Va.). MCF-7 cells were grown in EMEM Medium supplemented with 10% FBS and 0.01 mg/ml human recombinant insulin. 100 μg/ml penicillin and 100 μg/ml streptomycin were added to the culture medium. Cells were incubated with test peptides at 10 μM at 37° C. in a humidified atmosphere of 5% C02 and 95% air for 72 hours. 5 μl of CellTiter 96® AQueous One Solution Reagent (MTS assay reagent) was added to each well and incubated at 37° C., 5% C02 for 5 hours. Absorbance at 492 nm was recorded by Envision 2104 Multilabel Reader. Treatment with DMSO alone was used as the cell viability activity control.

MDA-MB-231 cells [2] = assay: MTS Assay in MDA-MB-231 Cells (cell viability); format: cell-based; settings: human, 72 h
Protocol: Test compounds and reference compound staurosporine (Selleckchem) were all dissolved with DMSO at 10 mM stock. […] Activity was calculated relative to DMSO control. […] Cell viability was 3% of the DMSO control value for Staurosporine (10 uM).

Row | Substance | Free Fatty Acid Levels Expressed as a Percent Isoproterenol Control, Percent of Control Value (3T3-L1 adipocytes) | other results
1 | 18 (QTVPNKPTGPKLPNLH) [compound 18] | 109% | 
2 | 5 ([dA]LIQCQSGHLR) [compound 5] | 159% | 
3 | 4 (LLIQCQSGHLR) [compound 4] | 141% | 
4 | insulin [reference compound] |  | Free fatty acid levels, % of the isoproterenol control value (3T3-L1 adipocytes; insulin 100 nM): < 5%
5 | MQTVPNKPTGPKLPNLH [compound 17] | 112% | Caspase 3/7 Activity, Percent of Control Activity (MDA-MB-231 cells [1]): 65%; MTS Assay cell viability, Percent of Control Activity (MCF-7 cells): 68%; MTS Assay cell viability, Percent of Control Activity (MDA-MB-231 cells [2]): 85%
6 | 19 (QTVPNKPT[dA]PKLPNLH) [compound 19] | 89% | 
7 | 15 (TGW[dA]RGLISTGR) [compound 15] | 102% | 
8 | MTCWLIVDIGLLIVSSVF [compound 7] | 160% | Caspase 3/7 Activity, Percent of Control Activity (MDA-MB-231 cells [1]): 56%; MTS Assay cell viability, Percent of Control Activity (MCF-7 cells): 52%; MTS Assay cell viability, Percent of Control Activity (MDA-MB-231 cells [2]): 88%
9 | 10 ([dA]TCWLIVDIGLLIVSS[dA]F) [compound 10] | 138% | 
10 | 9 ([dA]TCWLIVDIGLLIVSSVF) [compound 9] | 125% | 
11 | MSLLIQCQSGHLR [compound 2] | 162% | Caspase 3/7 Activity, Percent of Control Activity (MDA-MB-231 cells [1]): 92%; MTS Assay cell viability, Percent of Control Activity (MCF-7 cells): 59%; MTS Assay cell viability, Percent of Control Activity (MDA-MB-231 cells [2]): 90%
12 | 3 (SLLIQCQSGHLR) [compound 3] | 136% | 
13 | 14 (TGWARGLISTGR; not fully specified) [compound 14] | 102% | 
14 | 20 (QTVPNKPT[dA]PKLPN[dA]) [compound 20] | 108% | 
15 | MTGWARGLISTGRV [compound 12] | 107% | Caspase 3/7 Activity, Percent of Control Activity (MDA-MB-231 cells [1]): 73%; MTS Assay cell viability, Percent of Control Activity (MCF-7 cells): 62%; MTS Assay cell viability, Percent of Control Activity (MDA-MB-231 cells [2]): 89%
16 | 13 (TGWARGLISTGRV) [compound 13] | 87% | 
17 | 8 (TCWLIVDIGLLIVSSVF) [compound 8] | 129% | 
